Measurements from US12559529B2, “NPY2 receptor agonists” (Boehringer Ingelheim International GmbH, priority 2019, dated 2026).
*1 amine or outer side, *2 acyl side, *3 side chain or, on linkers, in order; H or OH if unused. Where a SMILES comes first, the peptide text is derived from it. Side-chain parts run from the residue outwards. The star is where a group is joined. C18 diacid = O=C(O)CCCCCCCCCCCCCCCCC(=O)*; γGlu = O=C(O)[C@H](CCC(=O)[*:2])N[*:1]; Isovaleryl = CC(C)CC(=O)*; AEEA = NCCOCCOCC(=O)O

The compounds below were run against T1, Human Neuropeptide Y2 Receptor (Homo sapiens, UniProt P49146) (assay: Radioligand binding competition assay (RLB)). Conditions: Table 3; human 125I-PYY (1-36) 0.02 nM, Y2 receptor membranes; read-out: Ki.
T1 construct: purchased CHEMICON HTS066M
T1 sequence (P49146 1-381): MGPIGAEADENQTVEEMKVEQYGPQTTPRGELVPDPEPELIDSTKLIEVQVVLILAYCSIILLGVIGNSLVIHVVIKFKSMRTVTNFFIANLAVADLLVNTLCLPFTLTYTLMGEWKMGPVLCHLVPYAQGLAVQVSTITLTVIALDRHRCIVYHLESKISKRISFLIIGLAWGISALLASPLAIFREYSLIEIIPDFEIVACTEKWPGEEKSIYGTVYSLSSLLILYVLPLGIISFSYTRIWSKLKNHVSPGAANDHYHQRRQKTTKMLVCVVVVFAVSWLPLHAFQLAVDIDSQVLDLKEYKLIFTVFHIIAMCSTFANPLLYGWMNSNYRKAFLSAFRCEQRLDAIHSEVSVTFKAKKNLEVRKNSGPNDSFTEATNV
Procedure, shortened: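 Peptide dilutions made in pH 7.4 HEPES assay buffer with 0.2% ovalbumin; human Y2 receptor membranes added at 0.5 μg protein/well; plates shaken 2 h at room temperature; reaction stopped by vacuum filtration onto PEI-treated GF/C filters with ice-cold high-salt washes; radioactivity counted by scintillation.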

| Ki [nM] | Structure (SMILES) |
| --- | --- |
| 0.93 | CC(C)CC(=O)N[C@@H](C)C(=O)N1CCC[C@H]1C(=O)N[C@@H](C)C(=O)N[C@@H](CCCCNC(=O)COCCOCCNC(=O)COCCOCCNC(=O)CC[C@H](NC(=O)CCCCCCCCCCCCCCCCC(=O)O)C(=O)O)C(=O)N1CCC[C@H]1C(=O)N[C@@H](CCC(=O)O)C(=O)N[C@@H](CCC(=O)O)C(=O)N[C@@H](CC(=O)O)C(=O)N[C@@H](C)C(=O)N[C@@H](CO)C(=O)N1CCC[C@H]1C(=O)N[C@@H](CCC(=O)O)C(=O)N[C@@H](CCC(=O)O)C(=O)N[C@@H](CC(C)C)C(=O)N[C@@H](CCC(=O)O)C(=O)N[C@@H](CCC(N)=O)C(=O)N[C@@H](Cc1ccc(O)cc1)C(=O)N[C@@H](Cc1ccc(O)cc1)C(=O)N[C@H](C(=O)N[C@@H](CO)C(=O)N[C@@H](CC(C)C)C(=O)N[C@@H](CCCNC(=N)N)C(=O)N[C@@H](Cc1c[nH]cn1)C(=O)N[C@@H](Cc1ccc(O)cc1)C(=O)N[C@@H](Cc1ccc(O)cc1)C(=O)N[C@@H](CC(N)=O)C(=O)N[C@@H](Cc1c[nH]c2ccccc12)C(=O)N[C@@H](CC(C)C)C(=O)N[C@H](C(=O)N[C@@H](CCCNC(=N)N)C(=O)N[C@@H](CCC(N)=O)C(=O)N[C@@H](CCCNC(=N)N)C(=O)N[C@@H](Cc1ccc(O)cc1)C(N)=O)[C@@H](C)O)C(C)C [Compound 216, N{alpha-4}-(3-methylbutanoyl)-N{epsilon-7}-[2-(2-{2-[2-(2-{2-[(4S)-4-carboxy-4-(17-carboxyheptadecanamido)butanamido]ethoxy}ethoxy)acetamido]ethoxy}ethoxy)acetamido]-[4A,6A,7K,9E,18E,19Q,22V,28Y,30W,31L]hPYY (4-36)] (Isovaleryl-APAK([AEEA-AEEA-γGlu-C18 diacid])PEEDASPEELEQYYVSLRHYYNWLTRQRY-NH2) |
| 1.49 | CC(C)CC(=O)N[C@@H](C)C(=O)N1CCC[C@H]1C(=O)N[C@@H](CCC(=O)O)C(=O)N[C@@H](CCCCNC(=O)COCCOCCNC(=O)COCCOCCNC(=O)CC[C@H](NC(=O)CCCCCCCCCCCCCCCCC(=O)O)C(=O)O)C(=O)N1CCC[C@H]1C(=O)N[C@@H](CCC(=O)O)C(=O)N[C@@H](CCC(=O)O)C(=O)N[C@@H](CC(=O)O)C(=O)N[C@@H](CO)C(=O)N[C@@H](CO)C(=O)N1CCC[C@H]1C(=O)N[C@@H](CCC(=O)O)C(=O)N[C@@H](CCC(=O)O)C(=O)N[C@@H](CC(C)C)C(=O)N[C@@H](CCC(N)=O)C(=O)N[C@@H](CCCNC(=N)N)C(=O)N[C@@H](Cc1ccc(O)cc1)C(=O)N[C@@H](Cc1ccc(O)cc1)C(=O)N[C@H](C(=O)N[C@@H](C)C(=O)N[C@@H](CC(C)C)C(=O)N[C@@H](CCCNC(=N)N)C(=O)N[C@@H](Cc1c[nH]cn1)C(=O)N[C@@H](Cc1ccc(O)cc1)C(=O)N[C@@H](Cc1ccc(O)cc1)C(=O)N[C@@H](CC(N)=O)C(=O)N[C@@H](Cc1c[nH]c2ccccc12)C(=O)N[C@@H](CC(C)C)C(=O)N[C@H](C(=O)N[C@@H](CCCNC(=N)N)C(=O)N[C@@H](CCC(N)=O)C(=O)N[C@@H](CCCNC(=N)N)C(=O)N[C@@H](Cc1ccc(O)cc1)C(N)=O)[C@@H](C)O)C(C)C [Compound 218, N{alpha-4}-(3-methylbutanoyl)-N{epsilon-7}-[2-(2-{2-[2-(2-{2-[(4S)-4-carboxy-4-(17-carboxyheptadecanamido)butanamido]ethoxy}ethoxy)acetamido]ethoxy}ethoxy)acetamido]-[4A,7K,9E,12S,18Q,22V,23A,28Y,30W,31L]hPYY (4-36)] |
| 7.6 | CC(C)CC(=O)N[C@@H](C)C(=O)N1CCC[C@H]1C(=O)N[C@@H](CCC(=O)O)C(=O)N[C@@H](CCCCNC(=O)COCCOCCNC(=O)COCCOCCNC(=O)CC[C@H](NC(=O)CCCCCCCCCCCCCCCCC(=O)O)C(=O)O)C(=O)N1CCC[C@H]1C(=O)N[C@@H](CCC(=O)O)C(=O)N[C@@H](CCC(=O)O)C(=O)N[C@@H](CCC(=O)O)C(=O)N[C@@H](C)C(=O)N[C@@H](C)C(=O)N1CCC[C@H]1C(=O)N[C@@H](CCC(=O)O)C(=O)N[C@@H](CCC(=O)O)C(=O)N[C@@H](CC(C)C)C(=O)N[C@@H](CCC(N)=O)C(=O)N[C@@H](CCCNC(=N)N)C(=O)N[C@@H](Cc1ccc(O)cc1)C(=O)N[C@@H](Cc1ccc(O)cc1)C(=O)N[C@H](C(=O)N[C@@H](CO)C(=O)N[C@@H](CC(C)C)C(=O)N[C@@H](CCCNC(=N)N)C(=O)N[C@@H](Cc1c[nH]cn1)C(=O)N[C@@H](Cc1ccc(O)cc1)C(=O)N[C@@H](Cc1ccc(O)cc1)C(=O)N[C@@H](CC(N)=O)C(=O)N[C@@H](Cc1c[nH]c2ccccc12)C(=O)N[C@@H](CC(C)C)C(=O)N[C@H](C(=O)N[C@@H](CCCNC(=N)N)C(=O)N[C@@H](CCC(N)=O)C(=O)N[C@@H](CCCNC(=N)N)C(=O)N[C@@H](Cc1ccc(O)cc1)C(N)=O)[C@@H](C)O)C(C)C [Compound 219, N{alpha-4}-(3-methylbutanoyl)-N{epsilon-7}-[2-(2-{2-[2-(2-{2-[(4S)-4-carboxy-4-(17-carboxyheptadecanamido)butanamido]ethoxy}ethoxy)acetamido]ethoxy}ethoxy)acetamido]-[4A,7K,9E,11E,13A,18Q,22V,28Y,30W,31L]hPYY (4-36)] |
| 2.99 | CC(C)CC(=O)N[C@@H](C)C(=O)N1CCC[C@H]1C(=O)N[C@@H](CCC(=O)O)C(=O)N[C@@H](CCCCNC(=O)COCCOCCNC(=O)COCCOCCNC(=O)CC[C@H](NC(=O)CCCCCCCCCCCCCCCCC(=O)O)C(=O)O)C(=O)N1CCC[C@H]1C(=O)N[C@@H](CCC(=O)O)C(=O)N[C@@H](CCC(=O)O)C(=O)N[C@@H](C)C(=O)N[C@@H](C)C(=O)N[C@@H](CO)C(=O)N[C@@H](C)C(=O)N[C@@H](CCC(=O)O)C(=O)N[C@@H](CCC(=O)O)C(=O)N[C@@H](CC(C)C)C(=O)N[C@@H](CCC(N)=O)C(=O)N[C@@H](CCCNC(=N)N)C(=O)N[C@@H](Cc1ccc(O)cc1)C(=O)N[C@@H](Cc1ccc(O)cc1)C(=O)N[C@H](C(=O)N[C@@H](CO)C(=O)N[C@@H](CC(C)C)C(=O)N[C@@H](CCCNC(=N)N)C(=O)N[C@@H](Cc1c[nH]cn1)C(=O)N[C@@H](Cc1ccc(O)cc1)C(=O)N[C@@H](Cc1ccc(O)cc1)C(=O)N[C@@H](CC(N)=O)C(=O)N[C@@H](Cc1c[nH]c2ccccc12)C(=O)N[C@@H](CC(C)C)C(=O)N[C@H](C(=O)N[C@@H](CCCNC(=N)N)C(=O)N[C@@H](CCC(N)=O)C(=O)N[C@@H](CCCNC(=N)N)C(=O)N[C@@H](Cc1ccc(O)cc1)C(N)=O)[C@@H](C)O)C(C)C [Compound 220, N{alpha-4}-(3-methylbutanoyl)-N{epsilon-7}-[2-(2-{2-[2-(2-{2-[(4S)-4-carboxy-4-(17-carboxyheptadecanamido)butanamido]ethoxy}ethoxy)acetamido]ethoxy}ethoxy)acetamido]-[4A,7K,9E,11A,14A,18Q,22V,28Y,30W,31L]hPYY (4-36)] |
| 4.77 | CC(C)CC(=O)N[C@@H](C)C(=O)N1CCC[C@H]1C(=O)N[C@@H](CCC(=O)O)C(=O)N[C@@H](CCCCNC(=O)COCCOCCNC(=O)COCCOCCNC(=O)CC[C@H](NC(=O)CCCCCCCCCCCCCCCCC(=O)O)C(=O)O)C(=O)N1CCC[C@H]1C(=O)N[C@@H](CCC(=O)O)C(=O)N[C@@H](CCC(=O)O)C(=O)N[C@@H](C)C(=O)N[C@@H](C)C(=O)N[C@@H](CCC(=O)O)C(=O)N1CCC[C@H]1C(=O)N[C@@H](CCC(=O)O)C(=O)N[C@@H](CCC(=O)O)C(=O)N[C@@H](CC(C)C)C(=O)N[C@@H](CCC(N)=O)C(=O)N[C@@H](CCCNC(=N)N)C(=O)N[C@@H](Cc1ccc(O)cc1)C(=O)N[C@@H](Cc1ccc(O)cc1)C(=O)N[C@H](C(=O)N[C@@H](CO)C(=O)N[C@@H](CC(C)C)C(=O)N[C@@H](CCCNC(=N)N)C(=O)N[C@@H](Cc1c[nH]cn1)C(=O)N[C@@H](Cc1ccc(O)cc1)C(=O)N[C@@H](Cc1ccc(O)cc1)C(=O)N[C@@H](CC(N)=O)C(=O)N[C@@H](Cc1c[nH]c2ccccc12)C(=O)N[C@@H](CC(C)C)C(=O)N[C@H](C(=O)N[C@@H](CCCNC(=N)N)C(=O)N[C@@H](CCC(N)=O)C(=O)N[C@@H](CCCNC(=N)N)C(=O)N[C@@H](Cc1ccc(O)cc1)C(N)=O)[C@@H](C)O)C(C)C [Compound 223, N{alpha-4}-(3-methylbutanoyl)-N{epsilon-7}-[2-(2-{2-[2-(2-{2-[(4S)-4-carboxy-4-(17-carboxyheptadecanamido)butanamido]ethoxy}ethoxy)acetamido]ethoxy}ethoxy)acetamido]-[4A,7K,9E,11A,13E,18Q,22V,28Y,30W,31L]hPYY (4-36)] |
